In ChEMBL document CHEMBL1201862, “PubChem BioAssay data set” (2004):
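Five compound concentrations were applied to cells in 96-well plates for 48 hours; endpoints were derived by simple linear interpolation of the resulting dose-response curve. At the GI50, growth is halved.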 Activity calls are given as the source filed them. Rule as the data show it: active = GI50 up to about 1.1 µM and inactive = higher.

Columns and labels:
Assay in all cases: NCI tumour cell line growth inhibition, 48 h
786-0 = system: 786-0
A498 = system: A498
A549 = system: A549
ACHN = system: ACHN
CAKI-1 = system: CAKI-1
CCRF-CEM = system: CCRF-CEM
COLO 205 = system: COLO 205
DLD-1 = system: DLD-1
DMS-114 = system: DMS-114
DMS-273 = system: DMS-273
EKVX = system: EKVX
HCC 2998 = system: HCC 2998
HCT-116 = system: HCT-116
HCT-15 = system: HCT-15
HL-60 = system: HL-60
HOP-18 = system: HOP-18
HOP-62 = system: HOP-62
HT-29 = system: HT-29
IGROV-1 = system: IGROV-1
K562 = system: K562
KM-20L2 = system: KM-20L2
KM12 = system: KM12
LOX IMVI = system: LOX IMVI
LXFL 529 = system: LXFL 529
M14 = system: M14
M19-MEL = system: M19-MEL
MOLT-4 = system: MOLT-4
Malme-3M = system: Malme-3M
NCI-H226 = system: NCI-H226
NCI-H23 = system: NCI-H23
NCI-H460 = system: NCI-H460
NCI-H522 = system: NCI-H522
OVCAR-3 = system: OVCAR-3
OVCAR-4 = system: OVCAR-4
OVCAR-5 = system: OVCAR-5
OVCAR-8 = system: OVCAR-8
RPMI-8226 = system: RPMI-8226
RXF 393 = system: RXF 393
RXF 631 = system: RXF 631
SF-268 = system: SF-268
SF-295 = system: SF-295
SF-539 = system: SF-539
SK-MEL-28 = system: SK-MEL-28
SK-MEL-2 = system: SK-MEL-2
SK-MEL-5 = system: SK-MEL-5
SK-OV-3 = system: SK-OV-3
SN12C = system: SN12C
SNB-19 = system: SNB-19
SNB-75 = system: SNB-75
SNB-78 = system: SNB-78
SW-620 = system: SW-620
TK-10 = system: TK-10
U-251 = system: U-251
UACC-257 = system: UACC-257
UACC-62 = system: UACC-62
UO-31 = system: UO-31
XF498 = system: XF498

COC(=O)C1=C(C[S+]([O-])c2ccc([N+](=O)[O-])cc2[N+](=O)[O-])ON(C)C1c1ccccc1 (configuration not stated)
GI50 (786-0): 67.1 µM (inactive) | GI50 (A498): > 61.8 µM (inactive) | GI50 (A549): 99.8 µM (inactive) | GI50 (ACHN): 67.6 µM (inactive) | GI50 (CAKI-1): 28 µM (inactive) | GI50 (CCRF-CEM): 9.06 µM (inactive) | GI50 (COLO 205): 24.2 µM (inactive) | GI50 (DLD-1): 33.8 µM (inactive) | GI50 (DMS-114): 27.7 µM (inactive) | GI50 (DMS-273): 36.2 µM (inactive) | GI50 (EKVX): > 64.6 µM (inactive) | GI50 (HCC 2998): > 37.8 µM (inactive) | GI50 (HCT-116): 34 µM (inactive) | GI50 (HCT-15): 37.8 µM | GI50 (HL-60): 7.66 µM (inactive) | GI50 (HOP-18): 22.6 µM (inactive) | GI50 (HOP-62): 39 µM (inactive) | GI50 (HT-29): 20.2 µM (inactive) | GI50 (IGROV-1): > 84.5 µM (inactive) | GI50 (K562): 12.1 µM (inactive) | GI50 (KM-20L2): 27.8 µM (inactive) | GI50 (KM12): 37.2 µM (inactive) | GI50 (LOX IMVI): 14.9 µM (inactive) | GI50 (LXFL 529): 30.1 µM (inactive) | GI50 (M14): 96.6 µM (inactive) | GI50 (M19-MEL): 34.3 µM (inactive) | GI50 (MOLT-4): 17.4 µM (inactive) | GI50 (Malme-3M): > 84.5 µM (inactive) | GI50 (NCI-H226): 65.2 µM (inactive) | GI50 (NCI-H23): 25.3 µM (inactive) | GI50 (NCI-H460): > 90.4 µM (inactive) | GI50 (NCI-H522): 17.7 µM (inactive) | GI50 (OVCAR-3): 43.2 µM (inactive) | GI50 (OVCAR-4): 48.4 µM (inactive) | GI50 (OVCAR-5): > 95.7 µM (inactive) | GI50 (OVCAR-8): 63.7 µM (inactive) | GI50 (RPMI-8226): 13.4 µM (inactive) | GI50 (RXF 393): > 42.2 µM (inactive) | GI50 (RXF 631): 99.5 µM (inactive) | GI50 (SF-268): 33.5 µM (inactive) | GI50 (SF-295): 46.8 µM (inactive) | GI50 (SF-539): 21.9 µM (inactive) | GI50 (SK-MEL-28): 24.2 µM (inactive) | GI50 (SK-MEL-2): 37 µM (inactive) | GI50 (SK-MEL-5): 83.9 µM (inactive) | GI50 (SK-OV-3): > 100 µM (inactive) | GI50 (SN12C): 29.4 µM (inactive) | GI50 (SNB-19): 32.8 µM (inactive) | GI50 (SNB-75): 16.3 µM (inactive) | GI50 (SNB-78): 33.9 µM (inactive) | GI50 (SW-620): 15.7 µM (inactive) | GI50 (TK-10): > 48.9 µM (inactive) | GI50 (U-251): 31.3 µM (inactive) | GI50 (UACC-257): 50.6 µM (inactive) | GI50 (UACC-62): 24.2 µM (inactive) | GI50 (UO-31): 39.4 µM (inactive) | GI50 (XF498): 37.3 µM (inactive)
